Assay results published in patent US10487117B2, “Antimicrobial peptide for nosocomial infections” (priority 2015, dated 2019).
Residues, ends and D or L forms follow the SMILES beside them.

What was measured:
[1] = tested on: LPS (lipopolysaccharides) from P. aeruginosa; experiment: LPS binding assay, BODIPY TR cadaverine (BC) displacement; design: species or system Pseudomonas aeruginosa; settings: 100% = total displacement of the dye; mean ± SEM
Procedure: Following, LPS binding affinity was monitored by a fluorometric assay which measures the competitive displacement of a cadaverine fluorescent probe (BC) by the protein and peptides. The half LPS binding affinity (ED50), defined as the AMP concentration needed to achieve half of BC displacement, and the total LPS binding affinity, expressed as a percentage, were determined (Table 4). Interaction with negatively charged surfaces of bacteria is the first step for cationic peptides to reach the bacterial membranes and exert their antimicrobial action.
LPS binding was assessed using the fluorescent probe BODIPY TR cadaverine (BC) as previously described (Pulido D. et al. Febs J 2013). BC binds strongly to native LPS, specifically recognizing the lipid A portion. When a protein that interacts with LPS is added, BC is displaced from the complex and its fluorescence is increased, decreasing its occupancy factor. LPS-binding assays were carried out in a 10 mM Hepes buffer at pH 7.5. The displacement assay was performed using a 96 well microtiter plate containing stirred mixture of either LPS (10 μg/mL) and BC (10 μM). Protein/peptides were serially diluted from 10 to 0.1 μM. Fluorescence measurements were performed on a Victor3 plate reader (Perkin Elmer, Waltham, Mass.). The protein/peptide concentration required to achieve half of total and total BC displacement was estimated from nonlinear regression analysis as previously described (Wood S. J. et al. 2004)

[2] = tested on: pre-established P. aeruginosa biofilm; experiment: Biofilm cell mortality, BacTiter-Glo luminescent assay; format: cell-based, Pseudomonas aeruginosa; settings: 24 h formed biofilm; 4 h at 37° C.; 10% Triton X-100 as maximum reference; N.D. = not detected at 50 μM

| SMILES | LPS binding %max (percentage of maximum displacement) [1] [%] | Biofilm cell mortality (%max) [2] |
| --- | --- | --- |
| CC[C@H](C)[C@H](NC(=O)CNC(=O)[C@@H](NC(=O)[C@H](CCCCN)NC(=O)[C@H](CCCCN)NC(=O)[C@H](Cc1ccccc1)NC(=O)[C@H](CC(C)C)NC(=O)[C@H](CCCCN)NC(=O)[C@H](Cc1c[nH]c2ccccc12)NC(=O)[C@@H](N)CCCCN)[C@@H](C)CC)C(=O)NCC(=O)N[C@@H](C)C(=O)N[C@H](C(=O)N[C@@H](CC(C)C)C(=O)N[C@@H](CCCCN)C(=O)N[C@H](C(=O)N[C@@H](CC(C)C)C(=O)N[C@H](C(=O)N[C@H](C(=O)NCC(=O)N[C@@H](CC(C)C)C(=O)N1CCC[C@H]1C(=O)N[C@@H](C)C(=O)N[C@@H](CC(C)C)C(=O)N[C@H](C(=O)N[C@@H](CO)C(N)=O)[C@@H](C)CC)[C@@H](C)O)[C@@H](C)O)C(C)C)C(C)C [CA-M] | 69.16 ± 6.23 | – |
| CC[C@H](C)[C@H](NC(=O)[C@H](CCC(N)=O)NC(=O)CN)C(=O)N[C@H](C(=O)N[C@@H](CC(N)=O)C(=O)N[C@@H](CC(C)C)C(=O)N[C@@H](CCCCN)C(=O)N[C@@H](C)C(=O)N[C@@H](CO)C(=O)N[C@@H](CC(C)C)C(=O)N[C@@H](CC(=O)O)C(=O)N[C@@H](CC(C)C)C(=O)N[C@@H](CC(C)C)C(N)=O)[C@@H](C)CC [GL-13, GQIINLKASLDLL-NH2] (H-GQIINLKASLDLL-NH2) | 44.37 ± 3.84 | unable to perform any cell mortality |
